Test results published in ChEMBL document CHEMBL1201862, “PubChem BioAssay data set” (2004).
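Compound exposure: 48 hours, 5 concentrations, 96-well plates. GI50 = concentration required for 50% inhibition of growth.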 Active and inactive are the calls of the source. No stated cut-off is given here; in the data, active = GI50 up to about 1.1 µM and inactive = higher.

What was measured:
Experiment in all cases: inhibition of tumour cell growth, NCI panel, 48 h
HOP-92 = system: HOP-92
CCRF-CEM = system: CCRF-CEM
NCI-H23 = system: NCI-H23
COLO 205 = system: COLO 205
K562 = system: K562
Hs-578T = system: Hs-578T
OVCAR-4 = system: OVCAR-4
CAKI-1 = system: CAKI-1
U-251 = system: U-251
UACC-62 = system: UACC-62
HCT-116 = system: HCT-116
UACC-257 = system: UACC-257
ACHN = system: ACHN
SF-539 = system: SF-539
SF-268 = system: SF-268
SK-MEL-28 = system: SK-MEL-28
SNB-75 = system: SNB-75
MDA-N = system: MDA-N
HOP-62 = system: HOP-62
SW-620 = system: SW-620
T47D = system: T47D
HL-60 = system: HL-60
RXF 393 = system: RXF 393
NCI/ADR-RES = system: NCI/ADR-RES
Malme-3M = system: Malme-3M
A549 = system: A549
OVCAR-3 = system: OVCAR-3
HT-29 = system: HT-29
EKVX = system: EKVX
NCI-H522 = system: NCI-H522
BT-549 = system: BT-549
OVCAR-5 = system: OVCAR-5
SK-MEL-2 = system: SK-MEL-2
SK-MEL-5 = system: SK-MEL-5
786-0 = system: 786-0
NCI-H460 = system: NCI-H460
OVCAR-8 = system: OVCAR-8
MDA-MB-435 = system: MDA-MB-435
A498 = system: A498
HCC 2998 = system: HCC 2998
M14 = system: M14
MCF7 = system: MCF7
NCI-H226 = system: NCI-H226
UO-31 = system: UO-31
PC-3 = system: PC-3
SR = system: SR
MDA-MB-231 = system: MDA-MB-231
SK-OV-3 = system: SK-OV-3
KM12 = system: KM12
MOLT-4 = system: MOLT-4
DU-145 = system: DU-145
IGROV-1 = system: IGROV-1
SNB-19 = system: SNB-19
SN12C = system: SN12C
HCT-15 = system: HCT-15
TK-10 = system: TK-10
RPMI-8226 = system: RPMI-8226
LOX IMVI = system: LOX IMVI
SF-295 = system: SF-295

Measured: GI50

Cc1nc2c(ccc3[nH]c4ccccc4c32)s1
18.8 µM: HCT-15
inactive: HOP-92 16.3 µM | CCRF-CEM 18.8 µM | NCI-H23 30.2 µM | COLO 205 20.5 µM | K562 22.3 µM | Hs-578T 16.3 µM | OVCAR-4 25.5 µM | CAKI-1 47.5 µM | U-251 20.5 µM | UACC-62 18.4 µM | HCT-116 17.4 µM | UACC-257 35.6 µM | ACHN 35.1 µM | SF-539 26 µM | SF-268 29.2 µM | SK-MEL-28 21.1 µM | SNB-75 32.9 µM | MDA-N 31.1 µM | HOP-62 17.4 µM | SW-620 19.7 µM | T47D 20.2 µM | RXF 393 29.8 µM | NCI/ADR-RES 34.8 µM | Malme-3M 31.4 µM | A549 28.4 µM | OVCAR-3 20.6 µM | HT-29 16.9 µM | EKVX 21.2 µM | NCI-H522 15.9 µM | BT-549 19.1 µM | OVCAR-5 19.3 µM | SK-MEL-2 19.9 µM | SK-MEL-5 15.2 µM | 786-0 26.1 µM | NCI-H460 20.6 µM | OVCAR-8 30.1 µM | MDA-MB-435 26.4 µM | A498 17.8 µM | HCC 2998 15.3 µM | M14 18.9 µM | MCF7 26.7 µM | NCI-H226 14.8 µM | UO-31 26.2 µM | PC-3 17.7 µM | SR 13.8 µM | MDA-MB-231 14.5 µM | SK-OV-3 22.3 µM | KM12 25.5 µM | MOLT-4 12.6 µM | DU-145 33.8 µM | IGROV-1 21.9 µM | SNB-19 37.8 µM | SN12C 24 µM | TK-10 29.5 µM
active: HL-60 0.111 µM

CCOC(=O)c1ccc(C(=O)/C(C(=O)OC(C)(C)C)=C2\CCCN2C)n1C
95.1 µM: HCT-15
inactive: CCRF-CEM 72.9 µM | NCI-H23 73.3 µM | COLO 205 96.8 µM | K562 42.1 µM | Hs-578T > 100 µM | OVCAR-4 46.6 µM | CAKI-1 > 100 µM | U-251 > 100 µM | UACC-62 44.2 µM | RPMI-8226 69.7 µM | HCT-116 48.5 µM | UACC-257 54 µM | ACHN 73.5 µM | SF-539 > 100 µM | SF-268 > 100 µM | SK-MEL-28 > 100 µM | SNB-75 15.9 µM | MDA-N 58.3 µM | LOX IMVI 87.3 µM | HOP-62 95.3 µM | SW-620 > 100 µM | T47D 29.2 µM | HL-60 27.4 µM | RXF 393 > 100 µM | NCI/ADR-RES 34.6 µM | Malme-3M > 100 µM | A549 61.2 µM | OVCAR-3 37.8 µM | HT-29 45.2 µM | EKVX 33.4 µM | BT-549 39.7 µM | SF-295 28.7 µM | OVCAR-5 > 100 µM | SK-MEL-2 > 100 µM | SK-MEL-5 21.3 µM | 786-0 > 100 µM | NCI-H460 94.6 µM | OVCAR-8 80.4 µM | MDA-MB-435 69.7 µM | A498 77.1 µM | HCC 2998 > 100 µM | M14 57.8 µM | MCF7 55.8 µM | NCI-H226 > 100 µM | UO-31 90.4 µM | PC-3 73.1 µM | SR 31.6 µM | MDA-MB-231 80 µM | SK-OV-3 16.6 µM | KM12 55.3 µM | MOLT-4 33.8 µM | DU-145 > 100 µM | IGROV-1 > 100 µM | SNB-19 > 100 µM | SN12C > 100 µM | TK-10 > 100 µM

O=c1[nH]c(=O)n(C2CC(O)C(CO)O2)c2nc3ccc4cc5ccccc5cc4c3nc12 (stereo not given)
inactive: HOP-92 > 100 µM | CCRF-CEM > 100 µM | NCI-H23 > 100 µM | COLO 205 > 100 µM | K562 > 100 µM | Hs-578T > 100 µM | OVCAR-4 80.7 µM | CAKI-1 > 100 µM | U-251 > 100 µM | UACC-62 > 100 µM | RPMI-8226 > 100 µM | HCT-116 > 100 µM | UACC-257 > 100 µM | ACHN > 100 µM | SF-539 > 100 µM | SF-268 > 100 µM | SK-MEL-28 > 100 µM | SNB-75 > 100 µM | MDA-N > 100 µM | LOX IMVI 14.8 µM | HOP-62 > 100 µM | SW-620 > 100 µM | T47D > 100 µM | RXF 393 > 100 µM | NCI/ADR-RES > 100 µM | Malme-3M > 100 µM | A549 > 100 µM | OVCAR-3 > 100 µM | HT-29 > 100 µM | EKVX > 100 µM | NCI-H522 > 100 µM | BT-549 > 100 µM | SF-295 > 100 µM | OVCAR-5 > 100 µM | SK-MEL-2 > 100 µM | SK-MEL-5 > 100 µM | 786-0 > 100 µM | OVCAR-8 > 100 µM | MDA-MB-435 > 100 µM | A498 > 100 µM | HCC 2998 > 100 µM | M14 > 100 µM | MCF7 > 100 µM | NCI-H226 > 100 µM | UO-31 > 100 µM | PC-3 > 100 µM | SR 69.5 µM | MDA-MB-231 > 100 µM | SK-OV-3 53.6 µM | KM12 51.6 µM | MOLT-4 > 100 µM | DU-145 > 100 µM | IGROV-1 > 100 µM | SNB-19 > 100 µM | SN12C > 100 µM | TK-10 > 100 µM
> 100 µM: HCT-15

CCOC(=O)C(C(N)=O)C1=Nc2cc([N+](=O)[O-])ccc2N/C1=C\C(=O)c1ccc(C)cc1 (stereo not given)
active: MOLT-4 0.522 µM
inactive: HOP-92 18.1 µM | CCRF-CEM 23.6 µM | NCI-H23 16.9 µM | COLO 205 27.2 µM | K562 2.46 µM | Hs-578T 21.6 µM | OVCAR-4 43.6 µM | CAKI-1 46.6 µM | U-251 15.5 µM | UACC-62 30.3 µM | RPMI-8226 18.1 µM | HCT-116 20.7 µM | UACC-257 39.5 µM | ACHN 21.3 µM | SF-539 17.1 µM | SF-268 15.1 µM | SK-MEL-28 29.3 µM | SNB-75 16.1 µM | MDA-N 43.3 µM | LOX IMVI 23.3 µM | HOP-62 16.8 µM | SW-620 28.7 µM | T47D 60.1 µM | RXF 393 17.6 µM | NCI/ADR-RES 22.1 µM | Malme-3M 35.3 µM | A549 26.9 µM | OVCAR-3 15.8 µM | HT-29 33.1 µM | EKVX 26.7 µM | NCI-H522 17.7 µM | BT-549 22.6 µM | SF-295 19.4 µM | OVCAR-5 70.8 µM | SK-MEL-2 20.9 µM | SK-MEL-5 33.9 µM | 786-0 13.1 µM | NCI-H460 22.2 µM | OVCAR-8 19 µM | MDA-MB-435 39.4 µM | A498 27.8 µM | HCC 2998 23.3 µM | M14 38.3 µM | MCF7 22.4 µM | NCI-H226 27.4 µM | UO-31 17.6 µM | PC-3 20 µM | SR 7.55 µM | MDA-MB-231 18.4 µM | SK-OV-3 18.3 µM | KM12 31.2 µM | DU-145 32.6 µM | IGROV-1 17.4 µM | SNB-19 20.7 µM | SN12C 26.2 µM | TK-10 14.8 µM
28.8 µM: HCT-15

Sc1nnc(C23CC4CC(CC(C4)C2)C3)n1-c1ccc(Cl)cc1
inactive: CCRF-CEM 4.36 µM | NCI-H23 27.5 µM | COLO 205 13.2 µM | K562 9.59 µM | Hs-578T 22.1 µM | OVCAR-4 16.9 µM | CAKI-1 1.96 µM | U-251 9.18 µM | UACC-62 8.26 µM | RPMI-8226 8.89 µM | HCT-116 7.59 µM | UACC-257 22.5 µM | ACHN 15.4 µM | SF-539 22.7 µM | SF-268 11.6 µM | SK-MEL-28 11.9 µM | SNB-75 22.3 µM | MDA-N 15.6 µM | LOX IMVI 4.54 µM | HOP-62 13 µM | SW-620 16.1 µM | T47D 17.5 µM | HL-60 2.77 µM | RXF 393 14.2 µM | NCI/ADR-RES 15.5 µM | Malme-3M 13.5 µM | A549 8.34 µM | OVCAR-3 10.8 µM | HT-29 14.6 µM | NCI-H522 20.2 µM | BT-549 12.3 µM | SF-295 11.1 µM | OVCAR-5 35.4 µM | SK-MEL-2 10.9 µM | SK-MEL-5 3.3 µM | 786-0 14.6 µM | NCI-H460 5.69 µM | OVCAR-8 15.8 µM | MDA-MB-435 12.9 µM | A498 19.1 µM | HCC 2998 13.7 µM | M14 15.1 µM | MCF7 13.1 µM | NCI-H226 23.3 µM | UO-31 13.7 µM | PC-3 11.2 µM | SR 3.07 µM | MDA-MB-231 21.4 µM | SK-OV-3 20 µM | KM12 14.6 µM | MOLT-4 8.41 µM | DU-145 20.1 µM | IGROV-1 8.75 µM | SNB-19 27.2 µM | SN12C 14.1 µM | TK-10 22.3 µM
7.83 µM: HCT-15
